Values joined by “and” are separate entries in the source; they are usually repeats but may differ in a detail not shown here. Equal entries are not always repeated. Where two headings read alike, the source gives them in different places.
Legend:
[1] = system: 3,4-dihydroxyphenylglycol (DHPG) in plasma; experiment: Decrease of DHPG plasma concentration in patients, HPLC with electrochemical detector; format: in vivo, human
Procedure: Decrease of 3,4-dihydroxyphenylglycol (“DHPG”) in plasma is indicative of monoamine oxidase inhibition, especially in the brain. DHPG plasma concentrations were measured in 6 of the aforementioned patients at baseline and at termination analysis, using HPLC equipped with an electrochemical detector.
The decrease in DHPG concentration in the six patients was determined. The average decrease in DHPG concentration was determined to be 57% with a standard deviation of 29.

[2] = Pharmacokinetic analysis in Alzheimer's disease patients; format: in vivo, human
Procedure: Pharmacokinetic analysis was performed on Week 4 (maintenance analysis) and on Week 9 (termination analysis). At maintenance analysis (M), samples were collected pre-dose and at 0.25, 0.5, 1, 2, and 3 hours post-dose. At termination analysis (T), samples were collected pre-dose and at 0.25, 0.5, 1, 2, 3, 4, 6, and […].
The concentration measurements are expressed in nmol/ml and the t1/2 is expressed in terms of hours.

[3] = Wet granulation experiments: compatibility with water and ethanol; format: physicochemical
Procedure: The manufacturing process was changed from the dry granulation process to a wet-granulation process as a result of the flow problem with the active ingredient. Water and ethanol are the two most common agents used in wet granulation. Granulation experiments were first performed with water. […] Therefore, granulation experiments based on the CC formulation were performed with isopropanol.

[4] = Bulk and tapped density of ladostigil tartrate crystals; format: physicochemical; conditions: crystals from the alternative isopropanol process
Excerpt: This alternative process, which can be performed without the seeding step, is better suited for use in a pilot scale and a production scale than a method that follows PCT Application Publication No. WO98/27055.

Cholinesterase = Cholinesterase inhibition at pre-dose in patients; format: in vivo, human; conditions: pre-dose administration, at maintenance and at termination analyses
Excerpt: Cholinesterase inhibition at pre-dose administration both at maintenance and at termination analyses was also evident.

Substance: R(+)-6-(N-methyl, N-ethyl-carbamoyloxy)-N′-propargyl-1-aminoindan [Ladostigil Tartrate]
- DHPG (T) (%) ([1]; individual patients, termination analysis Week 9 versus baseline): −63% and −86% and >−79% and −73% and −30% and −13%
- average decrease in DHPG concentration ([1]; six patients, termination analysis, standard deviation of 29): 57%
- t1/2 ([2]; half life at termination analysis Week 9): 1.08 h
- AUC ladostigil (M) ([2]; individual patients 1-8, maintenance analysis Week 4, 100 mg twice daily, tablets of Table 9): 314 ng·h/mL and 589 ng·h/mL and 1005 ng·h/mL and 927 ng·h/mL and 436 ng·h/mL and 551 ng·h/mL and 52 ng·h/mL and 500 ng·h/mL
- AUC ladostigil (T) ([2]; individual patients 1-8, termination analysis Week 9, 100 mg twice daily, tablets of Table 9): 246 ng·h/mL and 2305 ng·h/mL and 1449 ng·h/mL and 482 ng·h/mL and 398 ng·h/mL and 901 ng·h/mL and 118 ng·h/mL and 350 ng·h/mL
- Cmax ([2]; individual patients 1-8, termination analysis Week 9, 100 mg twice daily, read-out: Cmax ladostigil (T)): 700 nM and 3800 nM and 3900 nM and 1600 nM and 1000 nM and 2500 nM and 400 nM and 1300 nM
- Cmax ([2]; mean after dosing, maintenance analysis Week 4, read-out: Cmax): 2020 nM
- Cmax ([2]; mean after dosing, termination analysis Week 9, read-out: Cmax (T)): 1880 nM
- Cmin (M) ([2]; mean concentration at pre-dose (12 hours after previous dose), maintenance analysis Week 4): 1.64e-08 M
- Cmin (T) ([2]; mean concentration at pre-dose (12 hours after previous dose), termination analysis Week 9): 10.9 nM
- Compatibility with ethanol ([3]; wet granulation agent): incompatible with ethanol
- Stability in the presence of water ([3]; wet granulation with water): unstable in the presence of water
- bulk density [4]: 0.22 to 0.29 g/mL
- tapped density [4]: 0.38 to 0.54 g/mL
- Cholinesterase inhibition (Cholinesterase): evident
